Test results as given in patent publication US3984410A, “Isourea acetylphosphate insecticides” (priority 1975, dated 1976).
Converted amounts (≈) assume the structure as drawn. Like-named read-outs stand apart in the source and are kept apart here.

Assays:
Assay type in all cases: in vivo
[1] = system: Black Bean Aphid [Aphis fabae (Scop.)]; test: Direct Spray Assay on Black Bean Aphid; conditions: direct spray on nasturtium plants; mortality after 7 days
Description: Nasturtium plants (Tropaeolum sp.), approximately 5 cm tall, are transplanted into sandy loam soil in 3-inch clay pots and infested with 25-50 black bean aphids of mixed ages. Twenty-four hours later they are sprayed, to the point of runoff, with 50--50 acetone-water solutions of the test chemicals. Treated plants are held in the greenhouse and mortality is recorded after 7 days. Test concentrations range from 0.05% down to that at which 50% mortality occurs.

[2] = system: Green Peach Aphid [Myzus persicae (Sulzer)]; test: Green Peach Aphid spray on radish plants; conditions: sprayed to runoff on radish plants; mortality after 48 hours
Description: Radish plants (Rhaphanus sativus), approximately 2 cm tall, are transplanted into sandy loam soil in 3-inch clay pots and infested with 25-50 green peach aphids of mixed ages. Twenty-four hours later they are sprayed, to the point of runoff, with 50--50 acetone-water solutions of the test chemicals. Treated plants are held in the greenhouse and mortality is recorded after 48 hours. Test concentrations range from 0.05% down to that at which 50% mortality occurs.

[3] = system: housefly (Musca domestica L.); test: Housefly mortality, residue on aluminum dishes; conditions: 25 3-day old female houseflies; mortality after 48 hours
Description: Test compounds are diluted in acetone and aliquots are pipetted onto the bottom of 55 × 15 mm aluminum dishes. To insure even spreading of the chemical on the bottom of the dishes, 1 ml of acetone containing 0.02% peanut oil is also added to each dish. After all solvents have evaporated the dishes are placed in circular cardboard cages containing 25 3-day old female houseflies. The cages are covered on the bottom with cellophane and the top with tulle netting, and each contains a sugar-water saturated cotton plug for maintenance of the flies. Mortality is recorded after 48 hours. Test levels range from 100 μg/25 F. houseflies down to that at which approximately 50% mortality occurs.

[4] = system: Black Bean Aphid [Aphis fabae (Scop.)]; test: Systemic Assay on Black Bean Aphid; conditions: 168 h, read-out: Insecticide Activity - Approximate LD50, BAS (Black Bean Aphid - systemic)
Description: Test chemicals are diluted in acetone and aliquots are thoroughly mixed into 500 grams of dry, sandy loam soil. The treated soil is placed in a pint ice cream carton and a nasturtium plant (Tropaeolum sp.) approximately 5 cm tall is transplanted into each carton. The plants are then infested with approximately 25 black bean aphids of mixed ages and placed in the greenhouse. Seven days later mortality is recorded. Test concentrations range from 10 PPM down to that at which approximately 50% mortality occurs.

[5] = system: Southern House Mosquito [Culex pipiens quinquefasciatus (Say)]; test: Southern House Mosquito larvae in aqueous solution; conditions: 48 h, read-out: Insecticide Activity - Approximate LD50, MOS (Southern House Mosquito)
Description: Insecticidal activity is determined using third-instar larvae of the mosquito (Culex pipiens quinquefasciatus). Ten larvae are placed in a 6-ounce, number 67 Dixie wax paper cup containing 100 ml of an aqueous solution of the test chemical. The treated larvae are stored at 70°F, and 48 hours later the mortality is recorded. Test concentrations range from 0.5 PPM down to that at which approximately 50% mortality occurs.

[6] = system: Lygus Bug [Lygus hesperus (Knight)]; test: Lygus Bug spray; conditions: spray on adult bugs; mortality after 48 hours
Description: Test compounds are in a 50--50 acetone-water solution. Two cc of the solutions are sprayed through a Devilbiss type EGA hand spray gun into circular cardboard cages containing one string bean pod and ten adult lygus bugs. The test cages are covered on the bottom with cellophane and the top with tulle netting. Percent mortality is recorded 48 hours later. Test concentrations range from 0.05% down to that at which approximately 50% mortality occurs.

[7] = system: German Cockroach [Blattella germanica (Linne)]; test: German Cockroach spray
Description: Test compounds are diluted in a 50--50 acetone-water solution. Two cc of the solutions are sprayed through a DeVilbiss type EGA hand spray gun into circular cardboard cages containing 10 l-month-old German cockroach nymphs. The test cages are covered on the bottom with cellophane and the top with tulle netting. Percent mortality is recorded 7 days later. Test concentrations range from 0.1% down to that at which approximately 50% mortality occurs.

[8] = system: Cabbage Looper [Trichoplusia ni (Hubner)]; test: Cabbage Looper on dipped squash cotyledons; conditions: second-instar larvae, cotyledon dip; 48 hours plus 5 days
Description: (§1) Test compounds are diluted in a 50--50 acetone-water solution. Cotyledons of hyzini squash (Calabacita abobrinha), approximately 1 × 1.5 inches, are immersed in the test solutions for 2-3 seconds and placed on a wire screen to dry. The dried leaves are placed in petri dishes containing a moistened piece of filter paper and infested with five second-instar cabbage looper larvae. Mortality of the larvae is recorded 48 hours later, and a piece of synthetic media is added to dishes containing survivors. These are then held for 5 additional days to observe for any delayed effects of the test chemicals. Test concentrations range from 0.1% down to that at which approximately 50% mortality occurs.

[9] = system: Tobacco Budworm [Heliothis virescens (F.)]; test: Tobacco Budworm on dipped Romaine lettuce leaves; conditions: larvae, Romaine lettuce leaf dip; 48 hours plus 5 days
Description: as §1
The procedure is the same as that used for the cabbage looper, except that sections of Romaine lettuce (Latica sativa) leaves were used instead of cotyledons of hyzini squash.

[10] = systemic, chemical in soil, mortality after 7 days
[11] = spray on 1-month-old nymphs, mortality after 7 days

Row | SMILES | Insecticide Activity - Approximate LD50, BA (Black Bean Aphid - direct spray) [1] | Insecticide Activity - Approximate LD50, GPA (Green Peach Aphid) [2] | Insecticide Activity - Approximate LD50, HF (Housefly) [3] [μg/25 F.] | LC50 [4, 10] [µg/mL] | LC50 [5] [µg/mL] | Insecticide Activity - Approximate LD50, LB (Lygus Bug) [6] | Insecticide Activity - Approximate LD50, GR (German Cockroach) [7, 11] | Insecticide Activity - Approximate LD50, CL (Cabbage Looper) [8] | Insecticide Activity - Approximate LD50, TBW (Tobacco Budworm) [9] | LC50 ([4]; soil) [µg/mL] | Insecticide Activity - Approximate LD50, GR (German Cockroach) ([7]; 168 h)
1 | C=CCN(CC=C)C(=NC(=O)CSP(=S)(OCC)OCC)OC [Compound 1, N,N-Diallyl-N'-(O,O-diethylphosphorodithioylacetyl)-O-methylisourea] | .003% | > .05% | 10 | 3 (≈ 7.88 µM) | 1 (≈ 2.63 µM) | .05% | > .1% | – | – | – | –
2 | C=CCN(CC=C)C(=NC(=O)CSP(=S)(OC)OC)OC [Compound 2] | .008% | – | 8 | 5 (≈ 14.2 µM) | > 1 | > .05% | > .1% | – | – | – | –
3 | CCOP(=S)(OCC)SCC(=O)N=C(OC)N1CCCCC1 [Compound 3] | .001% | .008% | 25 | > 10 | 1 (≈ 2.71 µM) | .05% | > .1% | > .1% | > .1% | – | –
4 | CCOP(=S)(OCC)SCC(=O)N=C(OC)N1CCOCC1 [Compound 4, N-morpholino-N'-(O,O-diethylphosphorodithioylacetyl)-O-methylisourea] | .0008% | > .05% | 27 | 5 (≈ 13.5 µM) | > 1 | .05% | > .1% | – | – | – | –
5 | CCOP(=S)(OCC)SCC(=O)N=C(OC)N(CC)CC [Compound 5] | .001% | .03% | 23 | > 10 | > 1 | > .05% | .1% | > .1% | > .1% | – | –
6 | CCN(CC)C(=NC(=O)CSP(=S)(OC)OC)OC [Compound 6] | .05% | > .05% | 24 | – | > 1 | > .05% | > .1% | > .1% | > .1% | – | –
7 | CCOP(=S)(OCC)SCC(=O)N=C(OC)N(C)c1ccccc1 [Compound 8] | .0008% | .03% | 30 | – | > 1 | > .05% | – | > .1% | .1% | > 1 | > .05%
8 | C=CCN(C(=NC(=O)CSP(=S)(OCC)OCC)OC)c1ccccc1 [Compound 10] | > .05% | – | 10 | – | > 1 | .05% | > .1% | > .1% | > .1% | – | –
9 | C=CCN(C(=NC(=O)CSP(=S)(OC)OC)OC)c1ccccc1 [Compound 11] | .005% | .03% | 30 | > 10 | > 1 | > .05% | > .1% | > .1% | > .1% | – | –
10 | CCOP(=S)(OCC)SCC(=O)N=C(OC)N(C)Cc1ccccc1 [Compound 12] | > .05% | – | 24 | – | > 1 | > .05% | > .1% | > .1% | > .1% | – | –
11 | COC(=NC(=O)CSP(=S)(OC)OC)N(C)Cc1ccccc1 [Compound 13] | > .05% | – | 30 | – | > 1 | > .05% | > .1% | > .1% | > .1% | – | –
12 | CCOP(=S)(OCC)SCC(=O)N=C(OC)N(CC)c1ccccc1 [Compound 15] | .005% | .03% | 30 | 2 (≈ 4.94 µM) | > 1 | > .05% | > .1% | .1% | > .1% | – | –
13 | CCN(C(=NC(=O)CSP(=S)(OC)OC)OC)c1ccccc1 [Compound 16] | .03% | – | 25 | > 10 | > 1 | > .05% | > .1% | .1% | > .1% | – | –
14 | CCOP(=S)(OCC)SCC(=O)N=C(OC)N(CC)c1cccc(C)c1 [Compound 18] | .0005% | .005% | 22 | 5 (≈ 11.9 µM) | > 1 | > .05% | .1% | > .1% | .1% | – | –
